We go through one molecule from PMC11576293, “New series of 4,6-diaryl pyrimidines: facile synthesis and antiproliferative activity as dual EGFR/VEGFR-2 inhibitors” (Frontiers in Chemistry, 2024).

Each structure is given as a SMILES string.

The first experiment relates to NCI/ADR-RES. The experiment in a line: NCI-60 single-dose screen. It counts as cell-based. The following applies: Homo sapiens, single dose 10 µM, '-' = no inhibition, read-out: % Growth Inhibition. Put shortly:
(§1)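 Single concentration of 10 μM applied to every line of the 60-cell-line NCI panel. Testing performed by NCI DTP.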
Take `CCCSc1nc(-c2ccc(Cl)cc2)cc(-c2ccc(OC)c(OC)c2)n1` [Compound 25, 4-(4-Chlorophenyl)-6-(3,4-dimethoxyphenyl)-2-(propylthio)pyrimidine]: the inhibition at 10 µM was 11.2%.

The test system of a further experiment is SK-OV-3. The experiment in a line: NCI-60 single-dose screen. It counts as cell-based. The following applies: Homo sapiens, single dose 10 µM, '-' = no inhibition, read-out: % Growth Inhibition. In short, it runs like this: as §1
With `CCCSc1nc(-c2ccc(Cl)cc2)cc(-c2ccc(OC)c(OC)c2)n1` [Compound 25, 4-(4-Chlorophenyl)-6-(3,4-dimethoxyphenyl)-2-(propylthio)pyrimidine], the inhibition at 10 µM was 2.94%.

In the next experiment the test system is 786-0. The experiment is described as follows: NCI-60 single-dose screen. In kind it is cell-based. As to conditions: Homo sapiens, single dose 10 µM, '-' = no inhibition, read-out: % Growth Inhibition. In short, it runs like this: as §1
As for `CCCSc1nc(-c2ccc(Cl)cc2)cc(-c2ccc(OC)c(OC)c2)n1` [Compound 25, 4-(4-Chlorophenyl)-6-(3,4-dimethoxyphenyl)-2-(propylthio)pyrimidine], the inhibition at 10 µM is below 0%.

In the next experiment the test system is HCC-2998. The experiment in a line: NCI-60 single-dose screen. The following applies: Homo sapiens, single dose 10 µM, '-' = no inhibition, read-out: % Growth Inhibition. In kind it is cell-based. In short, it runs like this: as §1
As for `CCCSc1nc(-c2ccc(Cl)cc2)cc(-c2ccc(OC)c(OC)c2)n1` [Compound 25, 4-(4-Chlorophenyl)-6-(3,4-dimethoxyphenyl)-2-(propylthio)pyrimidine], the inhibition at 10 µM worked out at 4.26%.

The test system of a further experiment is SF-539. The experiment is described as follows: NCI-60 single-dose screen. It counts as cell-based. As to conditions: Homo sapiens, single dose 10 µM, '-' = no inhibition, read-out: % Growth Inhibition. In short, it runs like this:
as §1
For `CCCSc1nc(-c2ccc(Cl)cc2)cc(-c2ccc(OC)c(OC)c2)n1` [Compound 25, 4-(4-Chlorophenyl)-6-(3,4-dimethoxyphenyl)-2-(propylthio)pyrimidine], the inhibition at 10 µM is 1.28%.

In another experiment the test system is MALME-3M. The experiment in a line: NCI-60 single-dose screen. It counts as cell-based. The following applies: Homo sapiens, single dose 10 µM, '-' = no inhibition, read-out: % Growth Inhibition. Put shortly: as §1
For `CCCSc1nc(-c2ccc(Cl)cc2)cc(-c2ccc(OC)c(OC)c2)n1` [Compound 25, 4-(4-Chlorophenyl)-6-(3,4-dimethoxyphenyl)-2-(propylthio)pyrimidine], the inhibition at 10 µM amounted to 7.34%.

In a further experiment the test system is NCI-H460. The experiment in a line: NCI-60 single-dose screen. It counts as cell-based. The following applies: Homo sapiens, single dose 10 µM, '-' = no inhibition, read-out: % Growth Inhibition. In short, it runs like this: as §1
In the case of `CCCSc1nc(-c2ccc(Cl)cc2)cc(-c2ccc(OC)c(OC)c2)n1` [Compound 25, 4-(4-Chlorophenyl)-6-(3,4-dimethoxyphenyl)-2-(propylthio)pyrimidine], the inhibition at 10 µM is below 0%.

In another experiment the test system is SR. The experiment in a line: NCI-60 single-dose screen. It counts as cell-based. As to conditions: Homo sapiens, single dose 10 µM, '-' = no inhibition, read-out: % Growth Inhibition. In short, it runs like this:
as §1
Take `CCCSc1nc(-c2ccc(Cl)cc2)cc(-c2ccc(OC)c(OC)c2)n1` [Compound 25, 4-(4-Chlorophenyl)-6-(3,4-dimethoxyphenyl)-2-(propylthio)pyrimidine]: the inhibition at 10 µM turned out to be 24.9%.

The subject of another experiment is NCI-H322M. The experiment is described as follows: NCI-60 single-dose screen. In kind it is cell-based. As to conditions: Homo sapiens, single dose 10 µM, '-' = no inhibition, read-out: % Growth Inhibition. In short, it runs like this: as §1
Take `CCCSc1nc(-c2ccc(Cl)cc2)cc(-c2ccc(OC)c(OC)c2)n1` [Compound 25, 4-(4-Chlorophenyl)-6-(3,4-dimethoxyphenyl)-2-(propylthio)pyrimidine]: the inhibition at 10 µM turned out to be 4.54%.

A further experiment deals with SNB-75. The experiment is described as follows: NCI-60 single-dose screen. In kind it is cell-based. As to conditions: Homo sapiens, single dose 10 µM, '-' = no inhibition, read-out: % Growth Inhibition. Put shortly:
as §1
On to `CCCSc1nc(-c2ccc(Cl)cc2)cc(-c2ccc(OC)c(OC)c2)n1` [Compound 25, 4-(4-Chlorophenyl)-6-(3,4-dimethoxyphenyl)-2-(propylthio)pyrimidine], for which the inhibition at 10 µM turned out to be 2.64%.

For another experiment, the system named is ACHN 1. The experiment is described as follows: NCI-60 single-dose screen. As to conditions: Homo sapiens, single dose 10 µM, '-' = no inhibition, read-out: % Growth Inhibition. In kind it is cell-based. Put shortly: as §1
Consider `CCCSc1nc(-c2ccc(Cl)cc2)cc(-c2ccc(OC)c(OC)c2)n1` [Compound 25, 4-(4-Chlorophenyl)-6-(3,4-dimethoxyphenyl)-2-(propylthio)pyrimidine], for which the inhibition at 10 µM was found to be 7.82%.

In the next experiment the test system is COLO 205. The experiment is described as follows: NCI-60 single-dose screen. The following applies: Homo sapiens, single dose 10 µM, '-' = no inhibition, read-out: % Growth Inhibition. In kind it is cell-based. In short, it runs like this:
as §1
With `CCCSc1nc(-c2ccc(Cl)cc2)cc(-c2ccc(OC)c(OC)c2)n1` [Compound 25, 4-(4-Chlorophenyl)-6-(3,4-dimethoxyphenyl)-2-(propylthio)pyrimidine], the inhibition at 10 µM is 31.7%.

Another experiment concerns T-47D. The experiment is described as follows: NCI-60 single-dose screen. It counts as cell-based. The following applies: Homo sapiens, T47D, single dose 10 µM, '-' = no inhibition, read-out: % Growth Inhibition. In short, it runs like this:
as §1
Regarding `CCCSc1nc(-c2ccc(Cl)cc2)cc(-c2ccc(OC)c(OC)c2)n1` [Compound 25, 4-(4-Chlorophenyl)-6-(3,4-dimethoxyphenyl)-2-(propylthio)pyrimidine], the inhibition at 10 µM stood at 34.5%.

The next experiment concerns LOX IMVI. The experiment in a line: NCI-60 single-dose screen. In kind it is cell-based. The following applies: Homo sapiens, single dose 10 µM, '-' = no inhibition, read-out: % Growth Inhibition. In short, it runs like this: as §1
Regarding `CCCSc1nc(-c2ccc(Cl)cc2)cc(-c2ccc(OC)c(OC)c2)n1` [Compound 25, 4-(4-Chlorophenyl)-6-(3,4-dimethoxyphenyl)-2-(propylthio)pyrimidine], the inhibition at 10 µM came out at 1.51%.

The test system of another experiment is SK-MEL-2. The experiment in a line: NCI-60 single-dose screen. It counts as cell-based. The following applies: Homo sapiens, single dose 10 µM, '-' = no inhibition, read-out: % Growth Inhibition. In short, it runs like this: as §1
With `CCCSc1nc(-c2ccc(Cl)cc2)cc(-c2ccc(OC)c(OC)c2)n1` [Compound 25, 4-(4-Chlorophenyl)-6-(3,4-dimethoxyphenyl)-2-(propylthio)pyrimidine], the inhibition at 10 µM turned out to be 14.9%.

For a further experiment, the system named is A498. The experiment is described as follows: NCI-60 single-dose screen. The following applies: Homo sapiens, single dose 10 µM, '-' = no inhibition, read-out: % Growth Inhibition. In kind it is cell-based. Put shortly: as §1
On to `CCCSc1nc(-c2ccc(Cl)cc2)cc(-c2ccc(OC)c(OC)c2)n1` [Compound 25, 4-(4-Chlorophenyl)-6-(3,4-dimethoxyphenyl)-2-(propylthio)pyrimidine], for which the inhibition at 10 µM was below 0%.

For a further experiment, the system named is TK-10. The experiment is described as follows: NCI-60 single-dose screen. It counts as cell-based. As to conditions: Homo sapiens, single dose 10 µM, '-' = no inhibition, read-out: % Growth Inhibition. Put shortly:
as §1
Take `CCCSc1nc(-c2ccc(Cl)cc2)cc(-c2ccc(OC)c(OC)c2)n1` [Compound 25, 4-(4-Chlorophenyl)-6-(3,4-dimethoxyphenyl)-2-(propylthio)pyrimidine]: the inhibition at 10 µM was found to be 11.6%.

Another experiment deals with OVCAR-5. The experiment is described as follows: NCI-60 single-dose screen. It counts as cell-based. As to conditions: Homo sapiens, single dose 10 µM, '-' = no inhibition, read-out: % Growth Inhibition. Put shortly: as §1
As to `CCCSc1nc(-c2ccc(Cl)cc2)cc(-c2ccc(OC)c(OC)c2)n1` [Compound 25, 4-(4-Chlorophenyl)-6-(3,4-dimethoxyphenyl)-2-(propylthio)pyrimidine], the inhibition at 10 µM stood at 4.78%.

A further experiment deals with SNB-19. The experiment is described as follows: NCI-60 single-dose screen. In kind it is cell-based. The following applies: Homo sapiens, single dose 10 µM, '-' = no inhibition, read-out: % Growth Inhibition. Put shortly: as §1
Take `CCCSc1nc(-c2ccc(Cl)cc2)cc(-c2ccc(OC)c(OC)c2)n1` [Compound 25, 4-(4-Chlorophenyl)-6-(3,4-dimethoxyphenyl)-2-(propylthio)pyrimidine]: the inhibition at 10 µM was below 0%.

In the next experiment the test system is EKVX. The experiment is described as follows: NCI-60 single-dose screen. In kind it is cell-based. The following applies: Homo sapiens, single dose 10 µM, '-' = no inhibition, read-out: % Growth Inhibition. In short, it runs like this:
as §1
As for `CCCSc1nc(-c2ccc(Cl)cc2)cc(-c2ccc(OC)c(OC)c2)n1` [Compound 25, 4-(4-Chlorophenyl)-6-(3,4-dimethoxyphenyl)-2-(propylthio)pyrimidine], the inhibition at 10 µM is 5.09%.

The next experiment relates to HL-60(TB). The experiment in a line: NCI-60 single-dose screen. In kind it is cell-based. As to conditions: Homo sapiens, single dose 10 µM, '-' = no inhibition, read-out: % Growth Inhibition.
Take `CCCSc1nc(-c2ccc(Cl)cc2)cc(-c2ccc(OC)c(OC)c2)n1` [Compound 25, 4-(4-Chlorophenyl)-6-(3,4-dimethoxyphenyl)-2-(propylthio)pyrimidine]: the inhibition at 10 µM was 15.5%.

In another experiment the test system is BT-549. The experiment is described as follows: NCI-60 single-dose screen. In kind it is cell-based. The following applies: Homo sapiens, single dose 10 µM, '-' = no inhibition, read-out: % Growth Inhibition. In short, it runs like this: as §1
As to `CCCSc1nc(-c2ccc(Cl)cc2)cc(-c2ccc(OC)c(OC)c2)n1` [Compound 25, 4-(4-Chlorophenyl)-6-(3,4-dimethoxyphenyl)-2-(propylthio)pyrimidine], the inhibition at 10 µM is below 0%.

The test system of another experiment is SK-MEL-28. The experiment in a line: NCI-60 single-dose screen. It counts as cell-based. As to conditions: Homo sapiens, single dose 10 µM, '-' = no inhibition, read-out: % Growth Inhibition. In short, it runs like this:
as §1
For the molecule `CCCSc1nc(-c2ccc(Cl)cc2)cc(-c2ccc(OC)c(OC)c2)n1` [Compound 25, 4-(4-Chlorophenyl)-6-(3,4-dimethoxyphenyl)-2-(propylthio)pyrimidine], the inhibition at 10 µM was determined as 17.4%.

A word on the inhibition: it is the share of the control response that was lost under treatment.
